Experimental data published in US6429208B1, “Methods and compositions for restoring impaired cellular immune function” (Regents of the University of California, priority 1992, dated 2002).

System: PBMC from HIV seropositive subjects
Experiment: Intracellular cAMP in PBMC from HIV seropositive subjects
Assay type: cell-based, human
Method: The compound 2′,5′ dideoxyadenosine (ddAdo) inhibits adenylate cyclase, the enzyme responsible for the generation of cAMP, by competition for the “P”-binding site (Johnson, J Biochem (1990) 265:11595-11600). […] In one such experiment (FIG. 9A), the intracellular cAMP level decreased to normal levels within 4 hours and remained at this level when tested after 20 hours. The effect of ddAdo was compared with two other adenylate cyclase inhibitors which are naturally occurring adenosine phosphates. When used in equal concentrations, the three inhibitors gave similar reductions in intracellular CAMP levels. For example, when added in 10 ng/ml for 10 min, ddAdo decreased the CAMP levels from 5.3 pmol/10^6 PBMC to 3.6; 3′ AMP to 3.5; and 2′,3′deoxy-AMP reduced the level to 3.2 pmol/10^6 PBMC.
cAMP was determined using a commercial scintillation proximity RIA (Amersham, Arlington Heights, Ill.) following the manufacturer's protocol. PKA activity was determined using a kit from Gibco (Grand Island, N.Y.) and the manufacturer's protocol. For the cAMP assay, cells were lysed and sonicated in assay buffer (provided with the kits). Proliferative assays were performed as described above.
Further purification was achieved by reverse phase chromatography. 3 ml of above solution was applied on C18 Sep-Pak cartridge (Waters) equilibrated with water+0.1% TFA. The column was washed with H2O-TFA until absorbance at 280nm reached baseline. Bound material was eluted from the column by stepwise elution with H2O-acetonitrile-TFA mixtures. There were three peaks on elution curve at 20%, 40% and 70% acetonitrile. The effluent from the above step was rechromatographed again on C18 cartridge and yielded additional quantities of the three products. […] Fraction 2 was added in various PBS dilutions to lymphocytes from HIV seropositive subjects. cAMP was then measured on lysates of these cells after 1 hour.

In the case of `C[C@H]1O[C@@H](n2cnc3c(N)ncnc32)C[C@@H]1O` [ddAdo, 2′,5′ dideoxyadenosine], the cAMP levels (10 ng/ml for 10 min, decreased from 5.3) is reported as 3.6 pmol/10^6 PBMC and the “Time for intracellular cAMP level to decrease to normal levels” value (added for 10 minutes followed by washing, remained at this level after 20 hours, FIG. 9A) is reported as at most 4 h.
